# Assay results taken from US20050245399A1, “Pyrazole derivatives as herbicidal compositions containing them” (ISHIHARA SANGYO KAISHA, LTD., priority 2004, published 2005).
# Experiments:
# Type in all cases: in vivo
# [1] = system: crabgrass (Digitaria sanguinalis L.), DIGSA; experiment: Test Example 2 post-emergence (foliage treatment) herbicidal activity, DIGSA; details: 63 g a.i./ha
# From the text: (§1) Upland field soil was put into a 1/170,000 ha pot, and seeds of various plants were sown. Then, when the plants reached predetermined leaf stages {1. barnyardgrass (Echinochloa crus-galli L.), ECHCG: 1.1-2.1 leaf stage, 2. crabgrass (Digitaria sanguinalis L.), DIGSA: 1.0-2.0 leaf stage, 3. green foxtail (Setaria viridis L.), SETVI: 1.0-2.2 leaf stage, 4. redroot pigweed (Amaranthus retroflexus L.), AMARE: 0.1-1.5 leaf stage, 5. prickly sida (Sida spinosa L.), SIDSP: 0.1-0.6 leaf stage, 6. velvetleaf (Abutilon theophrasti), ABUTH: 0.1-0.6 leaf stage, 7. common cocklebur (Xanthium strumarium L.), XANST: 0.1 leaf stage, 8. rice (Oryza sativa L.), ORYSA; 1.0-2 leaf stage, 9. wheat (Triticum aestivum L.), TRZAX: 2.3-3.5 leaf stage, 10. corn (Zea mays L.), ZEAMXN 2.1-2.6 leaf stage, 11. soybean (Glycine max Merr.), GLXMA: primary leaf stage}, a wettable powder or emulsifiable concentrate having the compound of the present invention formulated in accordance with a usual formulation method, was weighed so that the active ingredient would be a predetermined amount, and diluted with water in an amount of 500 L/ha. To the diluted solution, 0.1% (v/v) of an agricultural spreader was added. The herbicide adjusted was applied by a small size sprayer for foliage treatment. On the 20th to 23rd day after the application of the herbicide, the growth of the respective plants was visually observed, and the herbicidal effects were evaluated by growth controlling degrees (%) ranging from 0 (equivalent to the untreated control) to 100 (complete kill), whereby the results shown in Table 5, were obtained. Compound Nos. in Table 5 correspond to Compound Nos. in Table 1 and 2 given hereinbefore.
# [2] = system: soybean (Glycine max Merr.), GLXMA; experiment: Test Example 2 post-emergence (foliage treatment) herbicidal activity, GLXMA; details: 63 g a.i./ha
# From the text: as §1
# [3] = system: velvetleaf (Abutilon theophrasti): ABUTH; experiment: Test Example 1 pre-emergence herbicidal activity, ABUTH; details: visually observed 20th to 23rd day after application
# From the text: (§2) Upland field soil was put into a 1/170,000 ha pot, and seeds of various plants {1. barnyardgrass (Echinochloa crus-galli L.): ECHCG, 2. crabgrass (Digitaria sanguinalis L.): DIGSA, 3. green foxtail (Setaria viridis L.): SETVI, 4. redroot pigweed (Amaranthus retroflexus L.): AMARE, 5. prickly sida (Sida spinosa L.): SEDSP, 6. velvetleaf (Abutilon theophrasti): ABUTH, 7. common cocklebur (Xanthium strumarium L.): XANST, 8. rice (Oryza sativa L.): ORYSA, 9. wheat (Triticum aestivum L.): TRZAX, 10. corn (Zea mays L.): ZEAMX, 11. soybean (Glycine max Merr.): GLXMA} were sown. Then, one day after the sowing, a wettable powder or emulsifiable concentrate having the compound of the present invention formulated in accordance with a usual formulation method, was weighed so that the active ingredient would be a predetermined amount and diluted with water in an amount of 500 L/ha. The herbicide adjusted was applied by a small size sprayer for preemergence treatment. On the 20th to 23rd day after the application of the herbicide, the growth of the respective plants was visually observed, and the herbicidal effects were evaluated by growth controlling degrees (%) ranging from 0 (equivalent to the untreated control) to 100 (complete kill), whereby the results shown in Table 4, were obtained. Compound Nos. in Table 4 correspond to Compound Nos. in Table 1 and 2 given hereinbefore.
# [4] = system: rice (Oryza sativa L.), ORYSA; experiment: Test Example 2 post-emergence (foliage treatment) herbicidal activity, ORYSA; details: 63 g a.i./ha
# From the text: as §1
# [5] = system: wheat (Triticum aestivum L.): TRZAX; experiment: Test Example 1 pre-emergence herbicidal activity, TRZAX; details: visually observed 20th to 23rd day after application
# From the text: as §2
# [6] = system: wheat (Triticum aestivum L.), TRZAX; experiment: Test Example 2 post-emergence (foliage treatment) herbicidal activity, TRZAX; details: 63 g a.i./ha
# From the text: as §1
# [7] = system: crabgrass (Digitaria sanguinalis L.): DIGSA; experiment: Test Example 1 pre-emergence herbicidal activity, DIGSA; details: visually observed 20th to 23rd day after application
# From the text: as §2
# [8] = system: soybean (Glycine max Merr.): GLXMA; experiment: Test Example 1 pre-emergence herbicidal activity, GLXMA; details: visually observed 20th to 23rd day after application
# From the text: as §2
# [9] = system: green foxtail (Setaria viridis L.), SETVI; experiment: Test Example 2 post-emergence (foliage treatment) herbicidal activity, SETVI; details: 63 g a.i./ha
# From the text: as §1
# [10] = system: corn (Zea mays L.), ZEAMX; experiment: Test Example 2 post-emergence (foliage treatment) herbicidal activity, ZEAMX; details: 63 g a.i./ha
# From the text: as §1
# [11] = system: corn (Zea mays L.): ZEAMX; experiment: Test Example 1 pre-emergence herbicidal activity, ZEAMX; details: visually observed 20th to 23rd day after application
# From the text: as §2
# [12] = system: prickly sida (Sida spinosa L.), SIDSP; experiment: Test Example 2 post-emergence (foliage treatment) herbicidal activity, SIDSP; details: 63 g a.i./ha
# From the text: as §1
# [13] = system: green foxtail (Setaria viridis L.): SETVI; experiment: Test Example 1 pre-emergence herbicidal activity, SETVI; details: visually observed 20th to 23rd day after application
# From the text: as §2
# [14] = system: barnyardgrass (Echinochloa crus-galli L.): ECHCG; experiment: Test Example 1 pre-emergence herbicidal activity, ECHCG; details: visually observed 20th to 23rd day after application
# From the text: as §2
# [15] = system: barnyardgrass (Echinochloa crus-galli L.), ECHCG; experiment: Test Example 2 post-emergence (foliage treatment) herbicidal activity, ECHCG; details: 63 g a.i./ha
# From the text: as §1
# [16] = system: redroot pigweed (Amaranthus retroflexus L.): AMARE; experiment: Test Example 1 pre-emergence herbicidal activity, AMARE; details: visually observed 20th to 23rd day after application
# From the text: as §2
# [17] = system: prickly sida (Sida spinosa L.): SEDSP; experiment: Test Example 1 pre-emergence herbicidal activity, SIDSP; details: visually observed 20th to 23rd day after application
# From the text: as §2
# [18] = system: rice (Oryza sativa L.): ORYSA; experiment: Test Example 1 pre-emergence herbicidal activity, ORYSA; details: visually observed 20th to 23rd day after application
# From the text: as §2
# [19] = system: velvetleaf (Abutilon theophrasti), ABUTH; experiment: Test Example 2 post-emergence (foliage treatment) herbicidal activity, ABUTH; details: 63 g a.i./ha
# From the text: as §1
# [20] = system: redroot pigweed (Amaranthus retroflexus L.), AMARE; experiment: Test Example 2 post-emergence (foliage treatment) herbicidal activity, AMARE; details: 63 g a.i./ha
# From the text: as §1
smiles,measurement,setting,value
COc1c(Cl)cc(F)c(-c2nn(C)c(OC(F)F)c2Cl)c1NC(=O)C=Cc1cccc(F)c1 [Compound 1-257],"growth controlling degree, DIGSP",[1],50%
same,"growth controlling degree, GLXMA",[2],40%
same,Pre-emergence Herbicidal Activity ABUTH (growth controlling degree),[3]; Rate 63 g a.i./ha,10%
same,"growth controlling degree, ORYSA",[4],40%
same,Pre-emergence Herbicidal Activity TRZAX (growth controlling degree),[5]; Rate 63 g a.i./ha,0%
same,"growth controlling degree, TRZAX",[6],50%
same,Pre-emergence Herbicidal Activity DIGSP (growth controlling degree),[7]; Rate 63 g a.i./ha,10%
same,Pre-emergence Herbicidal Activity GLXMA (growth controlling degree),[8]; Rate 63 g a.i./ha,0%
same,"growth controlling degree, SETVI",[9],70%
same,"growth controlling degree, ZEAMX",[10],30%
same,Pre-emergence Herbicidal Activity ZEAMX (growth controlling degree),[11]; Rate 63 g a.i./ha,0%
same,"growth controlling degree, SIDSP",[12],100%
same,Pre-emergence Herbicidal Activity SETVI (growth controlling degree),[13]; Rate 63 g a.i./ha,10%
same,Pre-emergence Herbicidal Activity ECHCG (growth controlling degree),[14]; Rate 63 g a.i./ha,30%
same,"growth controlling degree, ECHCO",[15],60%
same,Pre-emergence Herbicidal Activity AMARE (growth controlling degree),[16]; Rate 63 g a.i./ha,100%
same,Pre-emergence Herbicidal Activity SIDSP (growth controlling degree),[17]; Rate 63 g a.i./ha,60%
same,Pre-emergence Herbicidal Activity ORYSA (growth controlling degree),[18]; Rate 63 g a.i./ha,20%
same,"growth controlling degree, ABUTH",[19],100%
COc1c(Cl)cc(F)c(-c2nn(C)c(OC(F)F)c2Cl)c1N(C=O)CCOc1ccccc1 [Compound 1-43],"growth controlling degree, DIGSP",[1],20%
same,"growth controlling degree, GLXMA",[2],40%
same,Pre-emergence Herbicidal Activity ABUTH (growth controlling degree),[3]; Rate 125 g a.i./ha,0%
same,"growth controlling degree, ORYSA",[4],30%
same,Pre-emergence Herbicidal Activity TRZAX (growth controlling degree),[5]; Rate 125 g a.i./ha,0%
same,"growth controlling degree, TRZAX",[6],10%
same,Pre-emergence Herbicidal Activity DIGSP (growth controlling degree),[7]; Rate 125 g a.i./ha,10%
same,Pre-emergence Herbicidal Activity GLXMA (growth controlling degree),[8]; Rate 125 g a.i./ha,0%
same,"growth controlling degree, SETVI",[9],70%
same,"growth controlling degree, ZEAMX",[10],10%
same,Pre-emergence Herbicidal Activity ZEAMX (growth controlling degree),[11]; Rate 125 g a.i./ha,0%
same,Pre-emergence Herbicidal Activity SETVI (growth controlling degree),[13]; Rate 125 g a.i./ha,0%
same,"growth controlling degree, AMARE",[20],100%
same,Pre-emergence Herbicidal Activity ECHCG (growth controlling degree),[14]; Rate 125 g a.i./ha,0%
same,"growth controlling degree, ECHCO",[15],40%
same,Pre-emergence Herbicidal Activity SIDSP (growth controlling degree),[17]; Rate 125 g a.i./ha,0%
same,Pre-emergence Herbicidal Activity ORYSA (growth controlling degree),[18]; Rate 125 g a.i./ha,10%
same,"growth controlling degree, ABUTH",[19],100%
COc1c(Cl)cc(F)c(-c2nn(C)c(OC(F)F)c2Cl)c1NC(=O)C(C)c1ccccc1 (centres unmarked) [Compound 1-41],"growth controlling degree, DIGSP",[1],30%
same,"growth controlling degree, GLXMA",[2],40%
same,Pre-emergence Herbicidal Activity ABUTH (growth controlling degree),[3]; Rate 10 g a.i./ha,0%
same,"growth controlling degree, ORYSA",[4],30%
same,Pre-emergence Herbicidal Activity TRZAX (growth controlling degree),[5]; Rate 10 g a.i./ha,0%
same,"growth controlling degree, TRZAX",[6],30%
same,Pre-emergence Herbicidal Activity DIGSP (growth controlling degree),[7]; Rate 10 g a.i./ha,50%
same,Pre-emergence Herbicidal Activity GLXMA (growth controlling degree),[8]; Rate 10 g a.i./ha,0%
same,"growth controlling degree, SETVI",[9],40%
same,"growth controlling degree, ZEAMX",[10],0%
same,Pre-emergence Herbicidal Activity ZEAMX (growth controlling degree),[11]; Rate 10 g a.i./ha,0%
same,"growth controlling degree, SIDSP",[12],100%
same,Pre-emergence Herbicidal Activity SETVI (growth controlling degree),[13]; Rate 10 g a.i./ha,100%
same,Pre-emergence Herbicidal Activity ECHCG (growth controlling degree),[14]; Rate 10 g a.i./ha,30%
same,"growth controlling degree, ECHCO",[15],20%
same,Pre-emergence Herbicidal Activity AMARE (growth controlling degree),[16]; Rate 10 g a.i./ha,50%
same,Pre-emergence Herbicidal Activity SIDSP (growth controlling degree),[17]; Rate 10 g a.i./ha,40%
same,Pre-emergence Herbicidal Activity ORYSA (growth controlling degree),[18]; Rate 10 g a.i./ha,0%
same,"growth controlling degree, ABUTH",[19],100%
